Experimental findings from patent US20240317721A1, “PYRAZOLYL DERIVATIVES AS INHIBITORS OF THE KRAS MUTANT PROTEIN” (NOVARTIS AG, priority 2021, published 2024) are described below.

For the experiment, the target named is KRasG12C (M1-K169, biotinylated on the N-terminus) (Homo sapiens (Human), UniProt P01116, G12C). Kind of experiment: Covalent competition assay: scintillation proximity assay (SPA) quantifying covalent modification of KRASG12C. It counts as binding. The note with it: competition with radiolabeled covalent probe (Compound B/Compound A), 2 hours incubation, 10 nM KRasG12C. An outline of the steps: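 Test compounds compete with a radiolabeled covalent probe for modification of N-terminally biotinylated KRasG12C(M1-K169):GDP, final 10 nM protein, 25 nM radio-ligand, 475 nM unlabelled ligand, 2 h with agitation in 20 mM Tris-HCl pH 7.5, 150 mM NaCl, 0.1 mM MgCl2, 0.01% Tween-20.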
Regarding `C/C=C/C(=O)N1CC2(CC(n3nc(N4CCN(C5COC5)CC45CCC5)c(-c4c(Cl)c(C)cc5[nH]ncc45)c3C)C2)C1` (single isomer, unassigned) [Example 138a, (E)-1-(6-(4-(5-chloro-6-methyl-1H-indazol-4-yl)-5-methyl-3-(8-(oxetan-3-yl)-5,8-diazaspiro[3.5]nonan-5-yl)-1H-pyrazol-1-yl)-2-azaspiro[3.3]heptan-2-yl)but-2-en-1-one], the IC50 is over 5000 nM. In the case of `C/C=C/C(=O)N1CC2(CC(n3nc(N4CCN(C5COC5)CC45CCC5)c(-c4c(Cl)c(C)cc5[nH]ncc45)c3C)C2)C1` (single isomer, unassigned) [Example 138b, (E)-1-(6-(4-(5-chloro-6-methyl-1H-indazol-4-yl)-5-methyl-3-(8-(oxetan-3-yl)-5,8-diazaspiro[3.5]nonan-5-yl)-1H-pyrazol-1-yl)-2-azaspiro[3.3]heptan-2-yl)but-2-en-1-one], the IC50 was found to be 2780 nM. For `C=CC(=O)N1CC2(CC(n3nc(N4CCN(C5CCOCC5)CC4(C)C)c(-c4c(Cl)c(Cl)cc5[nH]ncc45)c3C)C2)C1` (single isomer, unassigned) [Example 140a, 1-(6-(4-(5,6-dichloro-1H-indazol-4-yl)-3-(2,2-dimethyl-4-(tetrahydro-2H-pyran-4-yl)piperazin-1-yl)-5-methyl-1H-pyrazol-1-yl)-2-azaspiro[3.3]heptan-2-yl)prop-2-en-1-one], the IC50 was found to be 971 nM. As for `C=CC(=O)N1CC2(CC(n3nc(N4CCN(C5CCOCC5)CC4(C)C)c(-c4c(Cl)c(Cl)cc5[nH]ncc45)c3C)C2)C1` (single isomer, unassigned) [Example 140b, 1-(6-(4-(5,6-dichloro-1H-indazol-4-yl)-3-(2,2-dimethyl-4-(tetrahydro-2H-pyran-4-yl)piperazin-1-yl)-5-methyl-1H-pyrazol-1-yl)-2-azaspiro[3.3]heptan-2-yl)prop-2-en-1-one], the figure is 18 nM; as for `C=CC(=O)N1CC2(CC(n3nc(N4CCN(C5COC5)CC45CCOC5)c(-c4c(Cl)c(C)cc5[nH]ncc45)c3C)C2)C1` (single isomer, unassigned) [Example 141b, 1-(6-(4-(5-chloro-6-methyl-1H-indazol-4-yl)-5-methyl-3-(9-(oxetan-3-yl)-2-oxa-6,9-diazaspiro[4.5]decan-6-yl)-1H-pyrazol-1-yl)-2-azaspiro[3.3]heptan-2-yl)prop-2-en-1-one], 104 nM. Consider `C=CC(=O)N1CC2(CC(n3nc(N4CCN(C5COC5)CC45CCOC5)c(-c4c(Cl)c(C)cc5[nH]ncc45)c3C)C2)C1` (single isomer, unassigned) [Example 142a, 1-(6-(4-(5-chloro-6-methyl-1H-indazol-4-yl)-5-methyl-3-(9-(oxetan-3-yl)-2-oxa-6,9-diazaspiro[4.5]decan-6-yl)-1H-pyrazol-1-yl)-2-azaspiro[3.3]heptan-2-yl)prop-2-en-1-one], for which the IC50 was found to be 204 nM. As for `C=CC(=O)N1CC2(CC(n3nc(N4CCN(C5COC5)C[C@@]4(C)CC)c(-c4c(Cl)c(C)cc5[nH]ncc45)c3C)C2)C1` (single isomer, unassigned) [Example 143a], the figure is over 5000 nM; as for `C=CC(=O)N1CC2(CC(n3nc(N4CCN(C5COC5)C[C@@]4(C)CC)c(-c4c(Cl)c(C)cc5[nH]ncc45)c3C)C2)C1` (single isomer, unassigned) [Example 143b], 39 nM. For `C=CC(=O)N1CC2(CC(n3nc(N4CCN(C5COC5)CC45CCCC5)c(-c4c(Cl)c(C)cc5[nH]ncc45)c3C)C2)C1` (single isomer, unassigned) [Example 144a, 1-(6-(4-(5-chloro-6-methyl-1H-indazol-4-yl)-5-methyl-3-(9-(oxetan-3-yl)-6,9-diazaspiro[4.5]decan-6-yl)-1H-pyrazol-1-yl)-2-azaspiro[3.3]heptan-2-yl)prop-2-en-1-one], the IC50 was over 5000 nM. As for `C=CC(=O)N1CC2(CC(n3nc(N4CCN(C5COC5)CC45CCCC5)c(-c4c(Cl)c(C)cc5[nH]ncc45)c3C)C2)C1` (single isomer, unassigned) [Example 144b, 1-(6-(4-(5-chloro-6-methyl-1H-indazol-4-yl)-5-methyl-3-(9-(oxetan-3-yl)-6,9-diazaspiro[4.5]decan-6-yl)-1H-pyrazol-1-yl)-2-azaspiro[3.3]heptan-2-yl)prop-2-en-1-one], the figure is 10 nM; as for `C=CC(=O)N1CC2(CC(n3nc(N4CCN(C5CCOCC5)CC45CCC5)c(-c4c(Cl)c(Cl)cc5[nH]ncc45)c3C)C2)C1` (single isomer, unassigned) [Example 145a, 1-(6-(4-(5,6-dichloro-1H-indazol-4-yl)-5-methyl-3-(8-(tetrahydro-2H-pyran-4-yl)-5,8-diazaspiro[3.5]nonan-5-yl)-1H-pyrazol-1-yl)-2-azaspiro[3.3]heptan-2-yl)prop-2-en-1-one], 4300 nM. As for `C=CC(=O)N1CC2(CC(n3nc(N4CCN(C5CCOCC5)CC45CCC5)c(-c4c(Cl)c(Cl)cc5[nH]ncc45)c3C)C2)C1` (single isomer, unassigned) [Example 145b, 1-(6-(4-(5,6-dichloro-1H-indazol-4-yl)-5-methyl-3-(8-(tetrahydro-2H-pyran-4-yl)-5,8-diazaspiro[3.5]nonan-5-yl)-1H-pyrazol-1-yl)-2-azaspiro[3.3]heptan-2-yl)prop-2-en-1-one], the figure is 12 nM.

On to `C=CC(=O)N1CC2(CC(n3nc(N4CCN(C5CCOCC5)C[C@@]4(C)C(F)F)c(-c4c(Cl)c(C)cc5[nH]ncc45)c3C)C2)C1` (single isomer, unassigned) [Example 146a], for which the IC50 is over 5000 nM.

For the molecule `C=CC(=O)N1CC2(CC(n3nc(N4CCN(C5CCOCC5)C[C@@]4(C)C(F)F)c(-c4c(Cl)c(C)cc5[nH]ncc45)c3C)C2)C1` (single isomer, unassigned) [Example 146b], the IC50 amounted to 31 nM. As for `C=CC(=O)N1CC2(CC(n3nc(N4CCN(C5COC5)C[C@]4(C)COC)c(-c4c(Cl)c(C)cc5[nH]ncc45)c3C)C2)C1` (single isomer, unassigned) [Example 147a], the figure is 8 nM. Turning to `C=CC(=O)N1CC2(CC(n3nc(N4CCN(C5COC5)C[C@]4(C)COC)c(-c4c(Cl)c(C)cc5[nH]ncc45)c3C)C2)C1` (single isomer, unassigned) [Example 147b], the IC50 was 923 nM. As for `C=CC(=O)N1CC2(CC(n3nc(N4CCN(C5COC5)C[C@@]4(C)COC)c(-c4c(Cl)c(C)cc5[nH]ncc45)c3C)C2)C1` (single isomer, unassigned) [Example 148a], the figure is over 5000 nM; as for `C=CC(=O)N1CC2(CC(n3nc(N4CCN(C5COC5)C[C@@]4(C)COC)c(-c4c(Cl)c(C)cc5[nH]ncc45)c3C)C2)C1` (single isomer, unassigned) [Example 148b], 295 nM; as for `C=CC(=O)N1CC2(CC(n3nc(N4CCN(C5CCOCC5)C[C@]4(C)COC)c(-c4c(Cl)c(C)cc5[nH]ncc45)c3C)C2)C1` (single isomer, unassigned) [Example 149a], 766 nM.

On to `C=CC(=O)N1CC2(CC(n3nc(N4CCN(C5CCOCC5)C[C@]4(C)COC)c(-c4c(Cl)c(C)cc5[nH]ncc45)c3C)C2)C1` (single isomer, unassigned) [Example 149b], for which the IC50 was 9 nM.

Turning to `C=CC(=O)N1CC2(CC(n3nc(N4CCN(C5CCOCC5)C[C@]4(C)COC)c(-c4c(Cl)c(Cl)cc5[nH]ncc45)c3C)C2)C1` (single isomer, unassigned) [Example 150a], the IC50 worked out at 252 nM. As for `C=CC(=O)N1CC2(CC(n3nc(N4CCN(C5CCOCC5)C[C@]4(C)COC)c(-c4c(Cl)c(Cl)cc5[nH]ncc45)c3C)C2)C1` (single isomer, unassigned) [Example 150b], the figure is under 5 nM. As for `C=CC(=O)N1CC2(CC(n3nc(N4CCN(C5CCOCC5)C[C@]4(C)C(F)F)c(-c4c(Cl)c(C)cc5[nH]ncc45)c3C)C2)C1` (single isomer, unassigned) [Example 151a], the figure is 46 nM.

For `C=CC(=O)N1CC2(CC(n3nc(N4CCN(C5CCOCC5)C[C@]4(C)C(F)F)c(-c4c(Cl)c(C)cc5[nH]ncc45)c3C)C2)C1` (single isomer, unassigned) [Example 151b], the IC50 was over 5000 nM. As for `C=CC(=O)N1CC2(CC(n3nc(N4CCN(C5COC5)CC4(CC)CC)c(-c4c(Cl)c(C)cc5[nH]ncc45)c3C)C2)C1` (single isomer, unassigned) [Example 152a, 1-(6-(4-(5-chloro-6-methyl-1H-indazol-4-yl)-3-(2,2-diethyl-4-(oxetan-3-yl)piperazin-1-yl)-5-methyl-1H-pyrazol-1-yl)-2-azaspiro[3.3]heptan-2-yl)prop-2-en-1-one], the figure is over 5000 nM. As to `C=CC(=O)N1CC2(CC(n3nc(N4CCN(C5COC5)CC4(CC)CC)c(-c4c(Cl)c(C)cc5[nH]ncc45)c3C)C2)C1` (single isomer, unassigned) [Example 152b, 1-(6-(4-(5-chloro-6-methyl-1H-indazol-4-yl)-3-(2,2-diethyl-4-(oxetan-3-yl)piperazin-1-yl)-5-methyl-1H-pyrazol-1-yl)-2-azaspiro[3.3]heptan-2-yl)prop-2-en-1-one], the 50% inhibitory concentration (IC50) was found to be 45 nM. In the case of `C=CC(=O)N1CC2(CC(n3nc(N4CCN(C[C@H]5CCCO5)CC45CCC5)c(-c4c(Cl)c(C)cc5[nH]ncc45)c3C)C2)C1` (single isomer, unassigned) [Example 153a], the IC50 is over 5000 nM. As for `C=CC(=O)N1CC2(CC(n3nc(N4CCN(C[C@H]5CCCO5)CC45CCC5)c(-c4c(Cl)c(C)cc5[nH]ncc45)c3C)C2)C1` (single isomer, unassigned) [Example 153b], the figure is 19 nM; as for `C=CC(=O)N1CC2(CC(n3nc(N4CCN(CC5(O)CC5)CC45CCC5)c(-c4c(Cl)c(C)cc5[nH]ncc45)c3C)C2)C1` (single isomer, unassigned) [Example 154a, 1-(6-(4-(5-chloro-6-methyl-1H-indazol-4-yl)-3-(8-((1-hydroxycyclopropyl)methyl)-5,8-diazaspiro[3.5]nonan-5-yl)-5-methyl-1H-pyrazol-1-yl)-2-azaspiro[3.3]heptan-2-yl)prop-2-en-1-one], over 5000 nM.
